Data published in patent US20240325548A1, “DYNAMIC BIOACTIVE SCAFFOLDS AND THERAPEUTIC USES THEREOF AFTER CNS INJURY” (Northwestern University, priority 2021, published 2024).

What was measured:
[1] = test system: hNPCs; assay: Neuronal differentiation of hNPCs treated with IKVAV PAs (TUJ-1+ cells); type: cell-based, human
Description: (§1) Neural progenitor cells (NPCs) were differentiated from human embryonic stem cells HUES 64 (Harvard University) (see FIG. 2C). In short, 70% confluent stem cell cultures grown in Matrigel (Thermo Fisher) coated plates with mTESR medium (STEMCELL Technologies), were switched to N2B27 medium (50% DMEM: F12, 50% Neurobasal, supplemented with NEAA, Glutamax, N2 and B27; Gibco) containing dual SMAD inhibitors (SB431542, DNSK International and LDN-193189, Tocris) for 12 days to induce the generation of neural progenitors. Neuralization was enhanced by supplementing medium with laminin from day 5 to 12. Next, neural rosettes were dissociated with neural rosette selection reagent (STEMCELL Technologies) to obtain NPCs, which are expanded in N2B27 (Gibco) medium supplemented with bFGF (Millipore). For experimentation in the different PA platforms, NPCs were dissociated with Accutase (Innovative Cell technology), and cultured in the distinct platforms with DMEM: F12+N2+B27 medium with hyclone penicillin-streptomycin (GE Healthcare) and ascorbic acid (0.2 μg/mL; Sigma-Aldrich).
(§2) For IKVAV PA treatments, hNPCs were cultured on ornithine coatings (German Glass, Chemglass Life Science) in 6 well and 24 well plates at a density of 500,000 cells/well and 80,000 cells/well respectively. hNPCs were treated with […] of IKVAV PAs ([PA]=6 mM, [KCl]=3 mM, [NaCl]=150 mM) or recombinant laminin protein (10 mg/mL) in solution. IKVAV PA2 and IKVAV PA5 were also mixed with 5 mM CaCl2) at a ratio PA:CaCl2) 6:1 to treat hNPCs. For 2D experiments, hNPCs were cultured on the different IKVAV PAs or laminin coatings in 6 well and 24 well plates at densities mentioned above. For co-assembled experiments, hNPCs were cultured on the different co-assembled PA coatings in 6 well and 24 well plates at a density of 400,000 cells/well and 50,000 cells/well respectively.
(§3) hNPCs were fed 4 times a week with DMEM: F12+N2^+B27 medium with hyclone penicillin-streptomycin and ascorbic acid. After 24 h, 72 h 1- or 2-weeks in vitro, cell lysates were harvested or fixed for WB or ICC, respectively. Three replicates per condition and at least three independent experiments were carried out for all conditions investigated.
(§4) For immunofluorescence, fixed primary cultures or free-floating tissue sections (40 m Thick) were incubated in blocking buffer containing 0.02% Triton-X (Sigma-Aldrich), 1% NHS (Gibco) and PBS 1× (Gibco). Samples were incubated with primary antibodies over night at 4° C. Alexa-488, Alexa-555 and/or Alexa-647 (1:500, Thermofisher) were used as secondary antibodies. DAPI (1:500, Thermofisher) was used to stain nuclei. Finally, the samples were mounted on coverslips with Immu-Mount (Fisher Scientific) solution for imaging.
For in vitro cell quantification, image files were imported into NIH Image J (1.51) software and the “analyze particles” and “cell counter” functions were used to measure the total number of cells in a determined area. Serial tissue sections were stained with NeuN and ChAT using free-floating immunostaining were quantified using Nikon Elements software. The rostral and caudal borders of the lesions were chosen as the first cross-sections that had NeuN staining in all four gray matter horns. 8 sections within the lesion were chosen per animal and expressed as number of neurons per section. Automated multichannel image acquisition, image stitching, and z-stack reconstruction ([…]) were carried out on a Nikon GasP R1 confocal microscope to image the entire selected cross-section for NeuN and Chat markers for all conditions.

[2] = Small- and wide-angle X-ray scattering (SAXS/WAXS) of PA nanofibers; type: physicochemical; settings: PA nanofibers in solution
Description: Small-angle X-ray scattering (SAXS), medium-angle X-ray scattering (MAXS), a wide-angle X-ray scattering (WAXS) experiments were performed at beamline 5-ID-D of the DuPont-Northwestern-Dow Collaborative Access Team (DND-CAT) Synchrotron Research Center at the Advanced Photon Source, Argonne National Laboratory. 100-150 μL of sample solution ([PA]=1-3 w/v % (˜6-10 mM) in aqueous NaCl and KCl ([NaCl]=150 mM and [KCl]=3 mM)) was introduced into capillary flow-cell with a fixed diameter and irradiated with X-ray for an exposure time of 0.5, 2, 3, or 10 s. Samples were oscillated at a rate of […] in the capillary with a syringe pump during sample measurement to prevent damage due to beam overexposure. Data was collected with an X-ray energy at 17 keV ([…]) with a triple-area detector system. The scattering intensity was recorded in the interval 0.002390<q<4.4578 Å^−1. The wave vector q is defined as =(4π/λ) sin(θ/2), where θ is the scattering angle. The acquired 2D scattering data were then reduced to 1D intensity vs. wavevector plots via azimuthal integration around the beam center in GSAS-II software. Background scattering patterns were obtained from samples containing 150 mM NaCl and 3 mM KCl. This background data was then subtracted from experimental data. All data was analyzed using the Irena software package running on IgorPro software.

[3] = test system: hNPCs; assay: hNPC attachment, proliferation and phenotype on co-assembled PA coatings (EdU, SOX-2, PAX6); type: cell-based, human
Description: as §1, §2, §3
For the hNPCs proliferation assay, 2 μM of the thymidine analog 5-ethynyl-2′-deoxyuridine (EdU, Thermo Fisher) was incorporated into the culture medium for 24 h. Cells were fixed at the indicated time points in 4% paraformaldehyde (PFA) for 15 min at RT. After fixation, samples were washed in PBS twice and then stained with Click-iT™ EdU Cell Proliferation Kit containing 11 mM CuSO4 (from 50 mM stock) and 1 μg/mL of Alexa Fluor-555 azide (from 0.5 mg/mL, Thermo Fisher) for 30 minutes at RT in the dark. The staining cocktail was then removed, and cells were washed with PBS. Then, hNPCs were counterstained with anti-rabbit SOX-2 antibody following the immunofluorescence protocol described below and 4′, 6-diamidino-2-phenylindole (DAPI, Thermo Fisher) at 5 μg/mL in PBS for 20 min at RT. The cells were then washed with PBS and mounted with Immu-Mount (Fisher Scientific) for imaging.
as §4, with “Finally, the samples were mounted on coverslips with Immu-Mount (Fisher Scientific) solution for imaging.” left out

| SAXS slope in the Guinier region [2] | Substance | percentage of induction of TUJ-1+ neuronal cells [1] | percentage of proliferating EdU+ and SOX2+ cells [3] | percentage of neuronal progenitor cells PAX6+ ([3]; one week later) |
| --- | --- | --- | --- | --- |
| −1.2 | C16-A2G2E4GIKVAV [IKVAV PA2] | 20.5±1% | decreased significantly | increased percentage |
|  | C16-VAG2E4GIKVAV [IKVAV PA4] | 14±1.2% |  |  |
|  | C16-V2A2E4GIKVAV [IKVAV PA1] | 8.2±0.7% |  |  |
| −0.2 | C16-G4E4GIKVAV [IKVAV PA5] | 20.7±1.2% |  |  |
